This assay deals with T1, hNGF (Homo sapiens, UniProt P01138).
T1 construct: gene NGF; homodimer; amine-coupled to the GCI chip
The assay is described as follows: grating-coupled interferometry (Creoptix WAVE-delta, waveRAPID), hNGF immobilised by amine coupling. It counts as binding.

T1 sequence (P01138 122-239): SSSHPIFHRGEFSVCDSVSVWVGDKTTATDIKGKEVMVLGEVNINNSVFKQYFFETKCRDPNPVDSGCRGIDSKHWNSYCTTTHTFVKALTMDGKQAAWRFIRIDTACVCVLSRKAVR

One may read the Kd as a measure of binding affinity in units of concentration. Low readings indicate a tighter complex, high ones a looser complex. In turn, `C[S+](C)[O-]` [DMSO] came in with a Kd of approximately 2100 µM.

These data come from paper PMC12300743, “Unveiling the Solvent Effect: DMSO Interaction with Human Nerve Growth Factor and Its Implications for Drug Discovery” (Molecules, 2025).
